# Experimental data taken from PubChem BioAssay (NCI).
#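 96-well plates; 48 h exposure; 5 concentrations. Endpoints by linear interpolation between flanking doses. Not reached: highest tested concentration assigned. GI50 = concentration required for 50% inhibition of growth. At the TGI there is no net growth.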
# Legend:
# Test in all cases: growth of human tumour cells (NCI), 48 h
# A498 renal = system: A498 renal
# HCT-116 colon = system: HCT-116 colon
# NCI-H460 lung = system: NCI-H460 lung
# NCI-H522 lung = system: NCI-H522 lung
# OVCAR-3 ovarian = system: OVCAR-3 ovarian
# OVCAR-5 ovarian = system: OVCAR-5 ovarian
# RPMI-8226 leukemia = system: RPMI-8226 leukemia
# SNB-19 CNS = system: SNB-19 CNS
# SNB-75 CNS = system: SNB-75 CNS
# SR leukemia = system: SR leukemia
Structure (SMILES),GI50 (A498 renal),TGI (A498 renal),GI50 (HCT-116 colon),TGI (HCT-116 colon),GI50 (NCI-H460 lung),TGI (NCI-H460 lung),GI50 (NCI-H522 lung),TGI (NCI-H522 lung),GI50 (OVCAR-3 ovarian),TGI (OVCAR-3 ovarian),GI50 (OVCAR-5 ovarian),TGI (OVCAR-5 ovarian),GI50 (RPMI-8226 leukemia),TGI (RPMI-8226 leukemia),GI50 (SNB-19 CNS),TGI (SNB-19 CNS),GI50 (SNB-75 CNS),TGI (SNB-75 CNS),GI50 (SR leukemia),TGI (SR leukemia)
O=C(O)CCC/C=C\C[C@H]1C=CC(=O)/C1=C/C[C@@H](O)CCc1cccc(C(F)(F)F)c1,2130 nM,4.06 µM,1270 nM,3.17 µM,2230 nM,4.96 µM,1350 nM,3.8 µM,1990 nM,5.61 µM,4150 nM,11.8 µM,1910 nM,12.2 µM,2010 nM,4.8 µM,9410 nM,22.2 µM,604 nM,7.22 µM
CC(=O)N1c2ccccc2NC2=C(C(=O)N(Cc3ccccc3)C2(C)C)C1c1ccco1 (stereo unspecified),727 nM,> 7.06 µM,692 nM,> 25 µM,145 nM,> 21.2 µM,871 nM,> 25 µM,208 nM,1.42 µM,440 nM,> 25 µM,758 nM,> 25 µM,524 nM,> 25 µM,841 nM,> 5.78 µM,463 nM,> 25 µM
CN(CC#N)C1CCCC[C@H]1O (stereo partly specified),,> 100 µM,,> 100 µM,,> 100 µM,,> 100 µM,,> 100 µM,,> 100 µM,,> 100 µM,,> 100 µM,,> 100 µM,,> 100 µM
CN1CCN(c2cc(C(=O)Nc3cc4cc(-c5cnn(C)c5)ccc4cn3)ccn2)CC1,60.5 nM,0.447 µM,37.6 nM,11.4 µM,121 nM,11.7 µM,47.2 nM,0.327 µM,42.5 nM,0.288 µM,308 nM,11.9 µM,108 nM,,121 nM,12 µM,137 nM,0.833 µM,47.2 nM,13.6 µM
C#CCN(N=O)C(=O)NC(CCCNC(=O)OCc1ccccc1)C(=O)OCc1ccccc1 (stereo unspecified),,> 100 µM,,> 100 µM,,> 100 µM,,27.2 µM,,> 100 µM,,> 100 µM,,> 100 µM,,> 100 µM,,> 100 µM,,84.2 µM
COC(=O)Nc1nc2ccc(C(=O)c3ccc(N(C)C4COC4)cc3)cc2[nH]1,413 nM,> 100 µM,360 nM,> 100 µM,359 nM,> 100 µM,337 nM,4.34 µM,375 nM,> 100 µM,746 nM,> 100 µM,369 nM,> 47.5 µM,435 nM,> 100 µM,227 nM,> 100 µM,188 nM,> 100 µM
COc1ccc(C[C@@H]2NC[C@@H](O)[C@@H]2OC(C)=O)cc1,1140 nM,,2920 nM,,3430 nM,,2060 nM,,5340 nM,,14100 nM,> 100 µM,1790 nM,,3730 nM,,,0.0692 µM,6900 nM,> 100 µM
Cc1cc(Nc2c3ccccc3nc3ccccc23)ccc1NS(C)(=O)=O,2240 nM,10.6 µM,3120 nM,11.6 µM,3070 nM,11.6 µM,3300 nM,13.1 µM,6130 nM,20.1 µM,6140 nM,22.2 µM,3020 nM,11.2 µM,5650 nM,35.9 µM,5110 nM,19.9 µM,2110 nM,5.91 µM
